What was measured:
[1] = system: normal NK cells expanded with K562-aAPC; assay: percent inhibition of viability; higher = more inhibition; conditions: 72 h, IL-2 2.5 ng/mL
Procedure: (§1)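 Drug sensitivity and resistance testing on K562-aAPC-expanded normal NK cells: 5 concentrations (10-fold steps over a 10,000-fold range), 72 h at 37 °C, viability by CellTiter-Glo normalised to DMSO and benzethonium chloride controls; DSS from the fitted curve.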

DERL-7 (IL-2 2.5 ng/mL) [2] = assay: as above; conditions: 72 h
IMC-1 (IL-2 20 ng/mL) [3] = assay: as above; conditions: 72 h
KAI3 (IL-2 2.5 ng/mL) [4] = assay: as above; conditions: 72 h
KHYG-1 (IL-2 2.5 ng/mL) [5] = assay: as above; conditions: 72 h
NK-92 (IL-2 2.5 ng/mL) [6] = assay: as above; conditions: 72 h
NK-YS (IL-2 2.5 ng/mL) [7] = assay: as above; conditions: 72 h
NKL (IL-2 2.5 ng/mL) [8] = assay: as above; conditions: 72 h
SNK-6 (IL-2 2.5 ng/mL) [9] = assay: as above; conditions: 72 h
YT (IL-2 2.5 ng/mL) [10] = assay: as above; conditions: 72 h
[11] = system: normal primary NK cells, pool 1 (3 donors) (IL-2 2.5 ng/mL); assay: as above; conditions: 72 h
[12] = system: normal primary NK cells, pool 1 (3 donors), resting (IL-2 0 ng/mL); assay: as above; conditions: 72 h
[13] = system: normal primary NK cells, pool 2 (3 donors) (IL-2 2.5 ng/mL); assay: as above; conditions: 72 h
[14] = system: normal primary NK cells, pool 3 (3 donors) (IL-2 2.5 ng/mL); assay: as above; conditions: 72 h
[15] = system: normal NK cells expanded with K562-aAPC; assay: drug sensitivity score (DSS) (DSS units); higher = more sensitive; extreme values may be limits of the assay; conditions: 72 h; IL-2 2.5 ng/mL
Procedure: as §1

DERL-7 (IL-2 2.5 ng/mL) [16] = assay: as above; conditions: 72 h
IMC-1 (IL-2 20 ng/mL) [17] = assay: as above; conditions: 72 h
KAI3 (IL-2 2.5 ng/mL) [18] = assay: as above; conditions: 72 h
KHYG-1 (IL-2 2.5 ng/mL) [19] = assay: as above; conditions: 72 h
NK-92 (IL-2 2.5 ng/mL) [20] = assay: as above; conditions: 72 h
NK-YS (IL-2 2.5 ng/mL) [21] = assay: as above; conditions: 72 h
NKL (IL-2 2.5 ng/mL) [22] = assay: as above; conditions: 72 h
SNK-6 (IL-2 2.5 ng/mL) [23] = assay: as above; conditions: 72 h
YT (IL-2 2.5 ng/mL) [24] = assay: as above; conditions: 72 h
[25] = system: normal primary NK cells, pool 1 (3 donors) (IL-2 2.5 ng/mL); assay: as above; conditions: 72 h
[26] = system: normal primary NK cells, pool 1 (3 donors), resting (IL-2 0 ng/mL); assay: as above; conditions: 72 h
[27] = system: normal primary NK cells, pool 2 (3 donors) (IL-2 2.5 ng/mL); assay: as above; conditions: 72 h
[28] = system: normal primary NK cells, pool 3 (3 donors) (IL-2 2.5 ng/mL); assay: as above; conditions: 72 h

CNC(=O)c1ccc2cc([C@@]3(O)CCn4cncc43)ccc2c1 [Orteronel] (max concentration tested 10000 nM)
percent inhibition of viability [%]
Conditions	1 nM	10 nM	100 nM	1000 nM	10000 nM
DERL-7 (IL-2 2.5 ng/mL) [2]	-6.34	0.71	-1.69	-1	-1.19
IMC-1 (IL-2 20 ng/mL) [3]	-2.16	2.99	-1.56	2.85	-4.82
KAI3 (IL-2 2.5 ng/mL) [4]	-7.13	-0.59	-2.47	-4.32	-11.3
KHYG-1 (IL-2 2.5 ng/mL) [5]	-5.73	-2.14	-3.55	0.58	-8.03
NK-92 (IL-2 2.5 ng/mL) [6]	-11.2	0.34	-4.73	4.66	-21.7
NK-YS (IL-2 2.5 ng/mL) [7]	-3.4	-3.35	-1.88	-0.21	-5.45
NKL (IL-2 2.5 ng/mL) [8]	-5	-13	-12.1	0.4	-4.85
SNK-6 (IL-2 2.5 ng/mL) [9]	12.8	29.5	-7.71	18.8	-9.24
YT (IL-2 2.5 ng/mL) [10]	-1.09	-0.82	-3	6.56	-4.8
[1]	-5.71	-7.96	-3.03	-3.58	-6.05
[11]	-3.93	-7.55	-2.24	5.97	4.41
[12]	-13	-1.84	15.9	8.47	14.4
[13]	-7.25	-8.3	-5.11	-0.18	-0.97
[14]	-9.86	-10.5	-4.17	-8.67	-0.69

Conditions	drug sensitivity score
DERL-7 (IL-2 2.5 ng/mL) [16]	0
IMC-1 (IL-2 20 ng/mL) [17]	0
KAI3 (IL-2 2.5 ng/mL) [18]	0
KHYG-1 (IL-2 2.5 ng/mL) [19]	0
NK-92 (IL-2 2.5 ng/mL) [20]	0
NK-YS (IL-2 2.5 ng/mL) [21]	0
NKL (IL-2 2.5 ng/mL) [22]	0
SNK-6 (IL-2 2.5 ng/mL) [23]	0
YT (IL-2 2.5 ng/mL) [24]	0
[15]	0
[25]	0
[26]	2.88
[27]	0
[28]	0

COC[C@H](NC(=O)c1cnc(C)s1)C(=O)N[C@@H](COC)C(=O)N[C@@H](Cc1ccccc1)C(=O)[C@@]1(C)CO1 [Oprozomib] (max concentration tested 2500 nM)
percent inhibition of viability [%]
Conditions	0.25 nM	2.5 nM	25 nM	250 nM	2500 nM
DERL-7 (IL-2 2.5 ng/mL) [2]	-5.62	7.77	81.9	101	101
IMC-1 (IL-2 20 ng/mL) [3]	-7.29	-3.63	0.39	101	101
KAI3 (IL-2 2.5 ng/mL) [4]	-8.21	-2.86	52.1	105	108
KHYG-1 (IL-2 2.5 ng/mL) [5]	-7.33	-2.59	15.4	108	110
NK-92 (IL-2 2.5 ng/mL) [6]	-20.8	3.65	34.1	107	110
NK-YS (IL-2 2.5 ng/mL) [7]	-6.41	-1.88	43.6	106	109
NKL (IL-2 2.5 ng/mL) [8]	-18	-8.51	12.1	107	110
SNK-6 (IL-2 2.5 ng/mL) [9]	-7.89	-7.58	14.6	101	101
YT (IL-2 2.5 ng/mL) [10]	-8.11	-6.26	14.6	106	110
[1]	-1.45	0.37	40.2	101	102
[11]	-9.35	5.43	36	97.7	99.8
[12]	-25.2	0.23	62.4	92.9	97.7
[13]	-5.27	3.49	62.8	94.6	99.5
[14]	-7.05	-2.21	50.4	99	100

Conditions	drug sensitivity score
DERL-7 (IL-2 2.5 ng/mL) [16]	28.6
IMC-1 (IL-2 20 ng/mL) [17]	18.1
KAI3 (IL-2 2.5 ng/mL) [18]	24.4
KHYG-1 (IL-2 2.5 ng/mL) [19]	20.7
NK-92 (IL-2 2.5 ng/mL) [20]	22.8
NK-YS (IL-2 2.5 ng/mL) [21]	23.7
NKL (IL-2 2.5 ng/mL) [22]	20.2
SNK-6 (IL-2 2.5 ng/mL) [23]	20.4
YT (IL-2 2.5 ng/mL) [24]	20.6
[15]	23.4
[25]	22
[26]	25
[27]	25.4
[28]	24.2

Source: the supplement of paper PMC5908809
